# From patent EP4745130A1, “CRYSTAL FORMS OF TUBULIN-SRC DUAL-TARGETING INHIBITOR, PREPARATION METHOD THEREFOR AND USE THEREOF” (Hubei Bio-Pharmaceutical Industrial Technological Institute …, priority 2023, dated 2025)
# Legend:
# [1] = Solid-state stability (XRPD and HPLC after open storage); type: physicochemical; details: for Crystal form: XRPD
# Method: The purity test, dynamic solubility test, and stability test in the assay were measured using an Agilent 1260 high-performance liquid chromatograph, and the salt formation molar ratio of ions was tested by ion chromatography, and the analytical conditions are shown in Table 19 and Table 20. Table 19 High-performance liquid chromatography test conditions
# [2] = Dynamic solubility experiment at 37°C (water, SGF, FaSSIF, FeSSIF); details: for S: solubility: solid feed 10 mg/mL; for pH: pH value of the filtrate
# Method: Rotating mixing was carried out at 37°C at a solid feed concentration of 10 mg/mL (calculated as the compound of Formula I). […] After sampling at each time point, the samples were centrifuged (10000 rpm) and filtered (0.45 µm PTFE filter head), and the HPLC concentration and pH value of the filtrate were measured.
# 100 mg of NaCl and 50 mg of Triton X-100 were weighed into a 50 mL volumetric flask, and purified water was added to complete dissolution. 816 µL of 1 M hydrochloric acid was added thereto, and the pH was adjusted to 1.8 with 1 M hydrochloric acid or 1 M NaOH solution. Purified water was added to make up to volume.
# 340 mg of anhydrous NaH2PO4 and 620 mg of NaCl were weighed into a 100 mL volumetric flask. Purified water was added to complete dissolution, followed by addition of 55.44 µL of 50% NaOH solution, and the pH was adjusted to 6.5 using 1M HCl or 1M NaOH solution. Purified water was added to make up to volume. 110 mg of SIF powder was then weighed into a 50 mL volumetric flask, added with the above solution to complete dissolution and make up to volume.
# 0.82 mL of glacial acetic acid and 1.18 g of NaCl were added to a 100 mL volumetric flask. Purified water was added to complete dissolution, followed by addition of 528 µL of 50% NaOH solution, and the pH was adjusted to 5.0 using 1M HCl or 1M NaOH solution. Purified water was added to make up to volume. 560 mg of SIF powder was then weighed into a 50 mL volumetric flask, added with the above solution to complete dissolution and make up to volume.
# [3] = Hygroscopicity test by dynamic vapor sorption (DVS); type: physicochemical; details: DVS, 25°C, 0%RH to 95%RH
# Method: The dynamic vapor sorption (DVS) curve was collected on DVS IntrInsic from SMS (surface measurement systems). The relative humidity at 25°C was corrected using the deliquescence points of LiCl, Mg(NO3)2, and KCl. Table 18 DVS test parameters
# The percentage change in sample mass was collected under constant temperature at 25°C as humidity varied from 0%RH to 95%RH.
# [4] = Suspension competition test between free form crystal forms A and B; type: physicochemical; details: in words; at room temperature and 50°C, compared with the free form crystal form B
# Excerpt: Table 24 Suspension competition test results between free form crystal forms A and B
smiles,measurement,setting,value
Cc1cc(OCCN2C[C@H]3COC[C@H]3C2)ccc1-c1ccc(CC(=O)NCc2ccccc2)nc1 [Free form crystal form A],Purity (area%),"[1]; 25°C/60%RH/open, 1 week",96.76 area%
same,Relative to initial (%),"[1]; 25°C/60%RH/open, 1 week",99.9%
same,Crystal form,"[1]; 25°C/60%RH/open, 1 week",Free form crystal form A
same,Purity (area%),"[1]; 40°C/75%RH/open, 1 week",96.70 area%
same,Relative to initial (%),"[1]; 40°C/75%RH/open, 1 week",99.8%
same,Crystal form,"[1]; 40°C/75%RH/open, 1 week",Free form crystal form A
same,Purity (area%),[1]; Initial,96.86 area%
same,S: solubility,"[2]; FaSSIF, 1 hour, 60 min",720 µg/mL
same,S: solubility,"[2]; FaSSIF, 4 hours, 240 min",700 µg/mL
same,S: solubility,"[2]; FaSSIF, 24 hours, 1440 min",630 µg/mL
same,S: solubility,"[2]; FeSSIF, 1 hour, 60 min",3460 µg/mL
same,S: solubility,"[2]; FeSSIF, 4 hours, 240 min",3740 µg/mL
same,S: solubility,"[2]; FeSSIF, 24 hours, 1440 min",3460 µg/mL
same,S: solubility,"[2]; H2O, 1 hour, 60 min",60 µg/mL
same,S: solubility,"[2]; H2O, 4 hours, 240 min",80 µg/mL
same,S: solubility,"[2]; H2O, 24 hours, 1440 min",60 µg/mL
same,S: solubility,"[2]; SGF, 1 hour, 60 min",6710 µg/mL
same,S: solubility,"[2]; SGF, 4 hours, 240 min",6770 µg/mL
same,S: solubility,"[2]; SGF, 24 hours, 1440 min",6610 µg/mL
same,pH,"[2]; FaSSIF, 1 hour",6.6
same,pH,"[2]; FaSSIF, 4 hours",6.6
same,pH,"[2]; FaSSIF, 24 hours",6.6
same,pH,"[2]; FeSSIF, 1 hour",5.3
same,pH,"[2]; FeSSIF, 4 hours",5.4
same,pH,"[2]; FeSSIF, 24 hours",5.4
same,pH,"[2]; H2O, 1 hour",8.6
same,pH,"[2]; H2O, 4 hours",8.6
same,pH,"[2]; H2O, 24 hours",8.5
same,pH,"[2]; SGF, 1 hour",5.7
same,pH,"[2]; SGF, 4 hours",5.8
same,pH,"[2]; SGF, 24 hours",5.9
same,hygroscopicity,[3],almost non-hygroscopic
same,thermodynamic stability,[4],thermodynamically more stable crystal form
